From patent publication US8431131B2, “CD38 and obesity” (Mayo Foundation for Medical Education and Research, priority 2007, dated 2013) come the findings set out here.

The subject of experiment [1] is high fat diet-induced obesity. The experiment is described as follows: High fat diet-induced obesity in mice. The experiment is classed as in vivo. To be noted: 30 mg/kg/day intraperitoneal, two weeks of HFD. As to the method: FIG. 9. […] Wild type mice were treated with resveratrol (a SIRT stimulator), and CD38 (−/−) mice were treated with Sirtinol (a SIRT antagonist) during 2 weeks of high fat diet. […] The number of animals in each group was between four and six.
Metabolic Studies and Diet At one year of age, CD38 (−/−) mice were placed on either a normal caloric diet (NCD; diet number 3807, KLIBA-NAFAG) or an HFD (AIN-93G modified to provide 60% of calories from fat, Researchdiets) ad libitum and monitored for six weeks. Body weight was recorded weekly, and food intake was measured for seven consecutive days. Oxygen consumption and energy expenditure (ER) measurements were performed in mice fed HFD for four weeks, and quantification of blood metabolites were performed. For the experiments using resveratrol and sirtinol, the HFD was supplemented with daily intraperitoneal injections of 30 mg/kg of drug (or vehicle) for two weeks. Cultured Smooth Muscle Cells from Wild-Type and CD38 Knockout Mice
Wild type mice were treated with 30 mg/kg/day of resveratrol, and CD38 (−/−) were treated with the same dose of sirtinol to determine the role of the SIRT enzymes upon high fat diet-induced obesity.

The subject of another experiment is ADP ribosyl cyclase. The experiment is described as follows: ADP ribosyl cyclase activity (cADPR synthesis) in liver plasma membranes using NGD as substrate. The experiment is classed as biochemical, mice. To be noted: 100 μM test drug. How it is done: (§1) FIG. 8. The effect of resveratrol and sirtinol upon the cADPR system. In A, ADP ribosyl cyclase activity was measured in liver plasma membranes using NGD as a substrate. Mice were treated with 100 μM of a test drug: DTT (dithiothreitol), resverastrol (Resv), or sirtinol. The control mice received no addition. Similar results were obtained using purified Aplysia ADPribosyl cyclase. In B, cADPR-induced Ca^2+ was measured in sea urchin egg homogenates. Ca^2+ was induced by 100 nM of cADPR with no further additions, or with 1 minute pre-incubation of 100 μM of the testing drugs 8-Br-cADPR (8-Br), resveratrol (Resv), or sirtinol. In C, experiments were conducted in smooth muscle cells in culture as described in FIG. 1E. Four to six hours before fixation and staining with acetylated P53 antibody, cells were treated with 100 μM of the testing drugs. 3-Deaza-cADPR is a cell permeable cADPR agonist. […] All experiments were repeated three to four times. The asterisk denotes significant differences between control and treatment.
ADP-ribosyl cyclase polypeptide activity was measured using the NGD technique as described herein, and NADase polypeptide activity was determined using etheno-NAD as described elsewhere (Johnson et al., Diabetes, 55:2737-2746 (2006)). […] Activity was determined by measuring the change in fluorescence over time at 300 nm excitation and 410 nm emission.

In experiment [2] the test system is cADPR-induced Ca2+ release. As to the kind of experiment: cADPR-induced Ca2+ release in sea urchin egg homogenates. The experiment is classed as biochemical, Lytechinus pictus. Particulars: 100 nM cADPR, 1 minute pre-incubation with 100 μM drug. As to the method: as §1, with “Similar results were obtained using purified Aplysia ADPribosyl cyclase.” left out, “treatment. cADPR-induced Ca^2+ release was determined in sea urchin egg homogenates using fluo-3 as a Ca^2+ indicator as described elsewhere (Chini, Braz. J. Med. Biol. Res., 35:543-547 (2002)). […] Fluo-3 fluorescence was monitored at 490 nm excitation and 535 nm emission in a 250-μL cuvette, held at 17° C. with a circulating water bath and continuously mixed with a magnetic stirring bar, in a Hitachi spectrofluorometer (F-2000).” for “treatment.”

The next experiment deals with acetylated P53. The experiment is described as follows: Acetylated p53 immuno-staining in cultured smooth muscle cells (measure of endogenous SIRT activity). The experiment is classed as cell-based, mice. Particulars: 100 μM, four to six hours. As to the method:
as §1
For experiments, cells were made quiescent by replacing the growth medium with SmBM without serum or growth factors. Cell medium was again replaced with SmBM containing testing agents solubilized in 0.1% DMSO or water added to the final concentrations.
Smooth muscle cells were obtained as described above. Cells were fixed in suspension in PBS plus 2% paraformaldehyde for 20 minutes at room temperature with constant agitation, and cells were washed three times for 10 minutes with TBS-Triton X-100 (0.1%). After that, cells were incubated in blocking buffer (TBS, 30 mM glycine, and 5% BSA) for 60 minutes and incubated with anti-acetylated p53 rabbit polyclonal antibody (1:1000) (Abcam, Inc.; Cambridge, Mass.) overnight at 4° C. with constant agitation. […]
Laser confocal images were obtained using the Olympus Fluoview laser scanning confocal microscopy, with objective Olympus UplanApo oil, 100×, 1.35 numerical aperture. Nuclei were excited at 543 nm, and their emission recorded at 570 nm.

The target of another experiment is T1, SIRT1 (Homo sapiens, UniProt Q96EB6).
T1 construct: purchased Biomol International, LP
T1 sequence (Q96EB6 1-747): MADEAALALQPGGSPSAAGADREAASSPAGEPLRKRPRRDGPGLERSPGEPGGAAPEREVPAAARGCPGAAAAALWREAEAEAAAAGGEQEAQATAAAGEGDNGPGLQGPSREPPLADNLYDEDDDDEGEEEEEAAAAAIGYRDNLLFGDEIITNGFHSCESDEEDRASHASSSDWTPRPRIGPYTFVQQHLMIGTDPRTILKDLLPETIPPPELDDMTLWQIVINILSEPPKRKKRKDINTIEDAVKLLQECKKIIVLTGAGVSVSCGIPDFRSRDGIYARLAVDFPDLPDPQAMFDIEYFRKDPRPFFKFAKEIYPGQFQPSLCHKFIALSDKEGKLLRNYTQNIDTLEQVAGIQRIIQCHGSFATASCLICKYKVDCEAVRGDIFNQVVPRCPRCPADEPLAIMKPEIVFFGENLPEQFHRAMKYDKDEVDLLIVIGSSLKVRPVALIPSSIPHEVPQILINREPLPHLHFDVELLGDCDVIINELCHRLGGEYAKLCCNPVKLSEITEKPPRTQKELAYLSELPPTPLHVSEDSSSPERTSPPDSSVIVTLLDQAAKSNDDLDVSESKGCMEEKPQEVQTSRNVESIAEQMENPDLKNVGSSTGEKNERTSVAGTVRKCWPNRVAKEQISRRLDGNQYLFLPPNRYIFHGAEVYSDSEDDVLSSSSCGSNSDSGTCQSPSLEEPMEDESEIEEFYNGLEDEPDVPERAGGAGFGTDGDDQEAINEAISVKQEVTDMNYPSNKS
As to the kind of experiment: Effect of CD38 metabolites on SIRT1 activity. Type of experiment: biochemical. How it is done: SIRT1 polypeptide activity was determined using the SIRT1 Fluorimetric Kit (Biomol International, LP; Plymouth Meeting, Pa.) according to the manufacturer's instructions. Briefly, nuclei prepared from wild-type or CD38 knockout mice (1 μg protein/well) were incubated in 40 mM Tris-HCl (pH 7.4) containing human recombinant SIRT1 (1 U/assay), 500 μM NAD+, and 100 μM Flour de Lys-SIRT1 substrate for 30 minutes at 37° C. Following incubation, the reaction was terminated by addition of a solution containing Flour de Lys Developer and 2 mM nicotinamide. Values were determined by reading fluorescence on a fluorimetric plate reader (Spectramax Gemini XPS; Molecular Devices; Sunnyvale, Calif.) with an excitation wavelength of 360 nm and emitted wavelength of 460 nm. Calculation of net fluorescence expressed as percent of control included the subtraction of a blank consisting of buffer containing no NAD+. Endogenous SIRT polypeptide activity was determined as described above with the exception that no recombinant SIRT enzyme was added to the reaction mixture and that the nuclear preparations were sonicated before the assay. The data were expressed as NAD stimulated deacetylation.
CD38 metabolites were tested for an effect on SIRT1 activity.

Another experiment addresses T2, CD38 polypeptide (Homo sapiens, UniProt P28907).
T2 sequence (P28907 1-300): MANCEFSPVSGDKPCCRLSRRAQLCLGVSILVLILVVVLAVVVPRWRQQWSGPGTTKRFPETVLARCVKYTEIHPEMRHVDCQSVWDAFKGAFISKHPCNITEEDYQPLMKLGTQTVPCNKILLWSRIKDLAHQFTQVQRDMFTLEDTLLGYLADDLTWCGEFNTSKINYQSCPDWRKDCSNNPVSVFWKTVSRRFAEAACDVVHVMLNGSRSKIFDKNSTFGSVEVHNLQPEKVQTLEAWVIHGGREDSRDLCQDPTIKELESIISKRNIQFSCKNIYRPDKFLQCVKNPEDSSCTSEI
As to the kind of experiment: CD38 NADase activity assay with etheno-NAD as substrate. Particulars: 1 mM, 10 minutes incubation. Type of experiment: biochemical. The source says: Agents that can inhibit CD38 expression or activity in cells can be identified by screening candidate agents (e.g., from synthetic compound libraries and/or natural product libraries). Candidate agents can be obtained from any commercial source and can be chemically synthesized using methods that are known to those of skill in the art. Candidate agents can be screened and characterized using in vitro cell-based assays, cell free assays, and/or in vivo animal models. For example, a CD38 NADase assay can be used to identify CD38 antagonists. NADase activity can be determined using etheno-NAD. Enzyme preparations (e.g., purified CD38) can be incubated in a medium containing, for example, 0.2 mM […], 0.25 M sucrose, and 40 mM Tris-HCl (pH 7.2) at 37° C. NADase activity can be determined by measuring the change in fluorescence over time at, for example, 300 nm excitation and 410 nm emission. Candidate agents can be added to the CD38 assay, and a decrease of the NADase activity compared to control can be determined. […]
ADP-ribosyl cyclase polypeptide activity was measured using the NGD technique as described herein, and NADase polypeptide activity was determined using etheno-NAD as described elsewhere (Johnson et al., Diabetes, 55:2737-2746 (2006)). […] Activity was determined by measuring the change in fluorescence over time at 300 nm excitation and 410 nm emission. […]

In experiment [3] the test system is Ca2+ release induced by oxytocin. The experiment is described as follows: Oxytocin-induced Ca2+ release in smooth muscle cells (control experiments). The experiment is classed as cell-based, mice. Particulars: same conditions as p53 experiment.

With `Oc1ccc(C=Cc2cc(O)cc(O)c2)cc1` [resveratrol], the “protection against high fat diet-induced obesity” value in experiment [1] (wild type mice) was “protected against high fat induced obesity”. Moreover, the “effect upon cADPR synthesis (ADP ribosyl cyclase activity)” value in the experiment with ADP ribosyl cyclase is on record as “Neither resveratrol (a SIRT activator) nor sirtinol (a SIRT inhibitor) exhibited any effect”. Further, in experiment [2], the “effect upon cADPR-induced Ca2+ release” value is listed as “Neither resveratrol (a SIRT activator) nor sirtinol (a SIRT inhibitor) exhibited any effect”. Besides, the “acetylated p53 level” value in the experiment with acetylated P53 (smooth muscle cells from wild type mice) is listed as “decreased acetylated p53”.
As for `NC(=O)c1cccnc1` [nicotinamide], the “effect on SIRT1 activity” value on SIRT1 is “exhibited an effect”. In addition, the “CD38 NADase activity” value at CD38 polypeptide is reported as “substantial inhibition”.
For `N=c1c2nc(Br)n3c2ncn1C1OC(COP(=O)(O)OP(=O)(O)OCC2OC3C(O)C2O)C(O)C1O` (centres unmarked) [8-Br-cADPR], the “levels of p53 acetylation in cells” value in the experiment with acetylated P53 (smooth muscle cells) is “neither the cell permeable cADPR antagonist (8-br-cADPR) nor the cADPR agonist (3-deaza-cADPR) had any effect”. In addition, in experiment [3], the “effect on oxytocin-induced Ca2+ release” value is listed as “blocked Ca^2+ release induced by oxytocin”.
Take 3-Deaza-cADPR: the “effect on oxytocin-induced Ca2+ release” value in experiment [3] was “increased oxytocin effect”.
Take `CC(NC(=O)c1ccccc1/N=C/c1c(O)ccc2ccccc12)c1ccccc1` (centres unmarked) [sirtinol]: in experiment [1] (CD38 (−/−) mice), the “protective effect of CD38 knock out upon high fat diet-induced obesity” value is “abrogated” and the “weight gain compared with vehicle treated CD38 (−/−) mice” value was “gained a statistically significant amount of weight”. For the same molecule, the “effect upon cADPR synthesis (ADP ribosyl cyclase activity)” value in the experiment with ADP ribosyl cyclase was “nor sirtinol (a SIRT inhibitor) exhibited any effect”. Besides, the “acetylated p53 level” value with acetylated P53 (smooth muscle cells from CD38 (−/−) mice) is “increased acetylated p53”.
With `NC(=O)c1ccc[n+]([C@@H]2O[C@H](COP(=O)([O-])OP(=O)(O)OC[C@H]3O[C@@H](n4cnc5c(N)ncnc54)[C@H](O)[C@@H]3O)[C@@H](O)[C@H]2O)c1` [NAD], the “effect on SIRT1 activity” value at SIRT1 is “exhibited an effect”.
